“And” between values parts separate entries of the source, which are not always exact repeats. Identical values can stand only once. Like-named read-outs stand apart in the source and are kept apart here.
Legend:
[1] = tested on: IL-2-FL/Gaussia Luciferase; experiment: Dox Induced IL2-FL-Gluc Assay; format: cell-based; settings: for IC50: 24 hr Dox induction, 293FRT/TO cells, read-out: 24 hr Dox Inducible IL2FLGluc 293FRT/TO: Mean IC50; for 24 hr Dox Inducible IL2FLGluc 293FRT/TO: IL2/PD1: ratio of IL2FLGluc IC50 to PD1ssGluc IC50
Procedure, shortened: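 Reporter is Gaussia luciferase fused to the 3′ end of full-length IL-2 (aa 1-153), expressed from a doxycycline-inducible T-REx construct in stably selected Flp-In 293 cells. Compounds were co-added with doxycycline and incubated at 37° C, 5% CO2.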

[2] = Liver Microsome Stability Assay (mouse); settings: mouse liver microsomes, with NADPH, 1.0 uM compound
Protocol: (§3) Stability of a compound was assessed in the presence of liver microsomes from various sources—mouse, rat, monkey and human liver microsomes. 1.0 uM compound, 0.4% DMSO in 0.1 M Potassium Phosphate with 1.0 mg/mL liver microsomes, were incubated at 37° C. with or without 1 mM NADPH. The samples were quenched at 0, and 30 minutes.

[3] = Liver Microsome Stability Assay (rat); settings: rat liver microsomes, with NADPH, 1.0 uM compound
Protocol: as §3

[4] = tested on: PD1-ss+10aa/Gaussia Luciferase; experiment: Dox-Induced PD1-ss-Gluc Assay; format: cell-based; settings: 24 hr Dox induction, 293FRT/TO cells, read-out: 24 hr Dox Inducible PD1ssGluc 293FRT/TO: Mean IC50
Procedure, shortened: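 Flp-In 293 T-REx cells stably carrying a doxycycline-inducible Gaussia luciferase fused to the PD1 signal sequence plus 10 aa were plated the day before. Compound dilutions in DMSO/media containing doxycycline were then added and incubated at 37 °C, 5% CO2. Data for undefined stereochemistry refer to stereoisomer mixtures.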

[5] = tested on: TNFα-FL/Gaussia Luciferase; experiment: Dox Induced TNFα-FL-Gluc Assay; format: cell-based; settings: for IC50: 24 hr Dox induction, 293FRT/TO cells, read-out: 24 hr Dox Inducible TNFaFLGluc 293FRT/TO: Mean IC50; for 24 hr Dox Inducible TNFaFLGluc 293FRT/TO: TNF/PD1: ratio of TNFaFLGluc IC50 to PD1ssGluc IC50
Text: (§1) Flp-In 293 T-REx™ cells were transfected with pcDNA™5/FRT/TO plasmid inserted with cDNA encoding Gaussia Luciferase fused to the 3′ end of cDNA encoding full length TNFα (amino acids 1-233). Transfected cells were selected for resistance to the selectable markers Hygromycin and Blasticidin to create a stable cell line that contained the TNFα-FL/Gaussia Luciferase cDNA insert whose expression was regulated under the T-REx™ system. The day before assay, cells were trypsinized and plated in 384-well tissue culture plates. The next day, compound dilutions in DMSO/media containing doxycycline were added to the wells and incubated at 37° C., 5% CO2.
(§2) For chemical structures that include one or more stereoisomers, but are illustrated without indicating stereochemistry, the assay data refers to a mixture of stereoisomers.

[6] = Liver Microsome Stability Assay (human); settings: human liver microsomes, with NADPH, 1.0 uM compound
Protocol: as §3

[7] = Liver Microsome Stability Assay (monkey); settings: monkey liver microsomes, with NADPH, 1.0 uM compound
Protocol: as §3

[8] = tested on: multiple myeloma cell line NCI-H929; experiment: H929 Cell Viability Assay; format: cell-based, human; settings: NCI-H929 cells, Celltiter-Glo
Procedure, shortened: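 Plate the myeloma cells in RPMI 1640 with 10% FBS, add serially diluted compound, incubate for 48 hours at 37° C, then add CellTiter-Glo and read luciferase signal.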

[9] = tested on: HER3-ss+4aa/Gaussia Luciferase; experiment: Dox-Induced Her3-ss-Gluc Assay; format: cell-based; settings: 24 hr Dox induction, 293FRT/TO cells, read-out: 24 hr Dox Inducible Her3(ss + 4)Gluc 293FRT/TO: Mean IC50
Text: as §1, with “HER3 signal sequence plus 4 amino” for “full length TNFα (amino”, “(N-[…]-C) (SEQ ID NO: 2).” for “1-233).”, “HER3-ss+4aa/Gaussia” for “TNFα-FL/Gaussia”
as §2

[10] = tested on: multiple myeloma cell line U266B1; experiment: U266 Cell Viability Assay; format: cell-based, human; settings: Homo sapiens, U-266, 48 h, U266B1 cells, Celltiter-Glo
Procedure, shortened: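 48 h treatment, 37° C./5% CO2, RPMI 1640 + 10% FBS; viability by CellTiter-Glo luminescence.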

[11] = '<=>' given where both are I.A.

| SMILES | IC50 [1] | 24 hr Dox Inducible IL2FLGluc 293FRT/TO: IL2/PD1 [1] | Liver Microsome Stability (Multiple Species): Mouse - % Remaining after 30 min w/NADPH [2] | Liver Microsome Stability (Multiple Species): Rat - % Remaining after 30 min w/NADPH [3] | IC50 [4] | IC50 [5] | 24 hr Dox Inducible TNFaFLGluc 293FRT/TO: TNF/PD1 [5] | Liver Microsome Stability (Multiple Species): Human - % Remaining after 30 min w/NADPH [6] | Liver Microsome Stability (Multiple Species): Monkey - % Remaining after 30 min w/NADPH [7] | EC50 ([8]; Homo sapiens, NCI-H929, 48 h) | IC50 [9] | EC50 [10] | IC50 ([1]; mean) | 24 hr Dox Inducible IL2FLGluc 293FRT/TO: IL2/PD1 [1, 11] | IC50 ([4]; mean) | IC50 ([5]; mean) | IC50 ([9]; mean) | 24 hr Dox Inducible TNFaFLGluc 293FRT/TO: TNF/PD1 [5, 11] | EC50 ([8]; 48 hr) |
| --- | --- | --- | --- | --- | --- | --- | --- | --- | --- | --- | --- | --- | --- | --- | --- | --- | --- | --- | --- |
| CC(=O)N1CCC(C(C)c2ccc(N3CCC[C@@H]3c3csc(NC(=O)c4cccn4Cc4ccnc(F)c4)n3)cc2)CC1 (stereo partly drawn) [Compound A161, N-(4-((2R)-1-(4-(1-(1-acetylpiperidin-4-yl)ethyl)phenyl)pyrrolidin-2-yl)thiazol-2-yl)-1-((2-fluoropyridin-4-yl)methyl)-1H-pyrrole-2-carboxamide] | 640 nM | 2.3 | 0.42% | 7.32% | 284 nM | 4000 nM | 14.1 | 1.04% | 0.12% | 12400 nM | 406 nM | > 25000 nM | – | – | – | – | – | – | – |
| O=C(Nc1nc([C@H]2CCCN2c2ccc(OC3CCN(C(=O)C(F)F)CC3)cc2)cs1)c1cccn1Cc1ccnc(F)c1 [Compound A91, (R)-N-(4-(1-(4-((1-(2,2-difluoroacetyl)piperidin-4-yl)oxy)phenyl)pyrrolidin-2-yl)thiazol-2-yl)-1-((2-fluoropyridin-4-yl)methyl)-1H-pyrrole-2-carboxamide] | 25 nM | 1.7 | 27.4% | 19.7% | 14.8 nM | 148 nM | 10 | 43% | 2.34% | 346 nM | 26.5 nM | > 25000 nM | – | – | – | – | – | – | – |
| O=C(Nc1nc([C@H]2CCCN2c2ccccc2)cs1)c1cccn1CCCc1nnn[nH]1 [Compound C14, (R)-1-(3-(1H-tetrazol-5-yl)propyl)-N-(4-(1-phenylpyrrolidin-2-yl)thiazol-2-yl)-1H-pyrrole-2-carboxamide] | – | – | 57.8% | 78.7% | – | – | – | 74.3% | 90.3% | > 25000 nM | – | > 25000 nM | > 25000 nM | 1 | > 25000 nM | > 25000 nM | > 25000 nM | – | – |
| CC(=O)Nc1ccc(N2CCC[C@@H]2c2csc(NC(=O)c3cccn3C[C@@H](C)CC#N)n2)cc1 [Compound C117, N-(4-((R)-1-(4-acetamidophenyl)pyrrolidin-2-yl)thiazol-2-yl)-1-((S)-3-cyano-2-methylpropyl)-1H-pyrrole-2-carboxamide] | – | – | 7.53% | 16.5% | – | – | – | 9.81% | 4.1% | 1130 nM | – | > 25000 nM | 54.3 nM | 2.1 | 25.6 nM | 275 nM | 49.6 nM | 10.7 | – |
| CC(=O)N1CCC(O[C@@H]2C[C@H](c3csc(NC(=O)c4cccn4Cc4ccncc4)n3)N(c3ccccc3)C2)CC1 [Compound E40, N-(4-((2R,4R)-4-((1-acetylpiperidin-4-yl)oxy)-1-phenylpyrrolidin-2-yl)thiazol-2-yl)-1-(pyridin-4-ylmethyl)-1H-pyrrole-2-carboxamide] | – | – | 2.75% | 1.43% | – | – | – | 0.43% | 0.1% | 6730 nM | – | > 25000 nM | 771 nM | 2.4 | 320 nM | 2050 nM | 645 nM | 6.42 | – |
| O=C(Nc1nc(/C=C/c2cn(Cc3ccccc3)cn2)cs1)c1cccn1Cc1ccnc(F)c1 [Compound B105, (E)-N-(4-(2-(1-benzyl-1H-imidazol-4-yl)vinyl)thiazol-2-yl)-1-((2-fluoropyridin-4-yl)methyl)-1H-pyrrole-2-carboxamide] | 2840 nM | 120 | 4.32% | 2.65% | 23.8 nM | > 25000 nM | >1050 | 0.11% | 0.05% | > 25000 nM | 2240 nM | > 25000 nM | – | – | – | – | – | – | – |
| CO[C@H](CC#N)Cn1cccc1C(=O)Nc1nc([C@H]2CCCN2c2ccccc2)cs1 [Compound C108, 1-((R)-3-cyano-2-methoxypropyl)-N-(4-((R)-1-phenylpyrrolidin-2-yl)thiazol-2-yl)-1H-pyrrole-2-carboxamide] | – | – | – | 3.87% and 7.05% | – | – | – | 8.71% and 7.07% | 2.55% and 1.11% | > 23800 nM | – | > 25000 nM | 4510 nM and 3480 nM | 1.9 and 2.2 | 2400 nM and 1590 nM | > 25000 nM and 17900 nM | 2410 nM and 2480 nM | > 10.4 and 11.3 | 20300 nM |
| Cc1cnn(C(C)C)c1/C=C/c1csc(NC(=O)c2cccn2Cc2ccnc(F)c2)n1 [Compound B84, (E)-1-((2-fluoropyridin-4-yl)methyl)-N-(4-(2-(1-isopropyl-4-methyl-1H-pyrazol-5-yl)vinyl)thiazol-2-yl)-1H-pyrrole-2-carboxamide] | 2170 nM | 2.4 | 50.1% and 71.4% | – | 905 nM | 1670 nM | 1.84 | 10.6% and 16.9% | 5.77% and 6.74% | 6850 nM | 2020 nM | 19100 nM | – | – | – | – | – | – | – |

Reference: patent publication US20230286973A1, “PROTEIN SECRETION INHIBITORS” (KEZAR LIFE SCIENCES, priority 2020, published 2023)
